The source of these data is ChEMBL document CHEMBL3991601, “The target landscape of clinical kinase drugs” (Science, 2017).

The structures appear in SMILES notation. Active and inactive are the calls of the source.

The target in assay [1] is T1, Exosome RNA helicase MTR4 (Homo sapiens, UniProt P42285).
T1 sequence (P42285 whole entry): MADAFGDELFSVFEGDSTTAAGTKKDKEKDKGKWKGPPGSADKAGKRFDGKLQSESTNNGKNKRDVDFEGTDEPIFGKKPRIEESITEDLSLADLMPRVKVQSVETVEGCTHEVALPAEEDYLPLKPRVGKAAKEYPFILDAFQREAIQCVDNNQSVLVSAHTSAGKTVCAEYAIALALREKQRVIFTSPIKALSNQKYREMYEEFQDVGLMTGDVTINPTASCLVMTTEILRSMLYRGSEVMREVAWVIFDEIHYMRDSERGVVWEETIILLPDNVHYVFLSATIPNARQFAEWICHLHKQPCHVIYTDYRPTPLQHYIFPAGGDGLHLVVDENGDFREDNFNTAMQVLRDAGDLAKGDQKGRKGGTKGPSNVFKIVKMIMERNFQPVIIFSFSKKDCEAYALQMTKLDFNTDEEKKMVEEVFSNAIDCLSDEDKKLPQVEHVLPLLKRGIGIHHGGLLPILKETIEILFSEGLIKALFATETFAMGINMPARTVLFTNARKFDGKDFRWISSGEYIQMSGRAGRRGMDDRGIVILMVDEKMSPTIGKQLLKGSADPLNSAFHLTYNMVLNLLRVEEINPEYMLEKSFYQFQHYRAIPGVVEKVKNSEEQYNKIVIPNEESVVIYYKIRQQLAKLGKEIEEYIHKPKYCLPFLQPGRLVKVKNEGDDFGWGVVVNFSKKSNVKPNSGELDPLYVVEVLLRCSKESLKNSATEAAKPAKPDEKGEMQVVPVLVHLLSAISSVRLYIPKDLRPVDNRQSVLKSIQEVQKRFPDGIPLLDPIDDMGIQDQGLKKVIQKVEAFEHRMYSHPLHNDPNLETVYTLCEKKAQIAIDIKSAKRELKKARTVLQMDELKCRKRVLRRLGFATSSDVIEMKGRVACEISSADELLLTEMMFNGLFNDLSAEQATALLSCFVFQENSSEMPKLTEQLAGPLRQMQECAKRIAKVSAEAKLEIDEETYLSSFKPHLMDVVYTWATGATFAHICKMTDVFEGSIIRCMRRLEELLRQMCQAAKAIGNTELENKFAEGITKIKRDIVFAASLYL

For assay [2], the target named is Cyclin-dependent kinase 4 (Homo sapiens, UniProt P11802).
Assay [3] addresses T2, Serine/threonine-protein kinase Nek9 (Homo sapiens, UniProt Q8TD19).
T2 sequence (Q8TD19 whole entry): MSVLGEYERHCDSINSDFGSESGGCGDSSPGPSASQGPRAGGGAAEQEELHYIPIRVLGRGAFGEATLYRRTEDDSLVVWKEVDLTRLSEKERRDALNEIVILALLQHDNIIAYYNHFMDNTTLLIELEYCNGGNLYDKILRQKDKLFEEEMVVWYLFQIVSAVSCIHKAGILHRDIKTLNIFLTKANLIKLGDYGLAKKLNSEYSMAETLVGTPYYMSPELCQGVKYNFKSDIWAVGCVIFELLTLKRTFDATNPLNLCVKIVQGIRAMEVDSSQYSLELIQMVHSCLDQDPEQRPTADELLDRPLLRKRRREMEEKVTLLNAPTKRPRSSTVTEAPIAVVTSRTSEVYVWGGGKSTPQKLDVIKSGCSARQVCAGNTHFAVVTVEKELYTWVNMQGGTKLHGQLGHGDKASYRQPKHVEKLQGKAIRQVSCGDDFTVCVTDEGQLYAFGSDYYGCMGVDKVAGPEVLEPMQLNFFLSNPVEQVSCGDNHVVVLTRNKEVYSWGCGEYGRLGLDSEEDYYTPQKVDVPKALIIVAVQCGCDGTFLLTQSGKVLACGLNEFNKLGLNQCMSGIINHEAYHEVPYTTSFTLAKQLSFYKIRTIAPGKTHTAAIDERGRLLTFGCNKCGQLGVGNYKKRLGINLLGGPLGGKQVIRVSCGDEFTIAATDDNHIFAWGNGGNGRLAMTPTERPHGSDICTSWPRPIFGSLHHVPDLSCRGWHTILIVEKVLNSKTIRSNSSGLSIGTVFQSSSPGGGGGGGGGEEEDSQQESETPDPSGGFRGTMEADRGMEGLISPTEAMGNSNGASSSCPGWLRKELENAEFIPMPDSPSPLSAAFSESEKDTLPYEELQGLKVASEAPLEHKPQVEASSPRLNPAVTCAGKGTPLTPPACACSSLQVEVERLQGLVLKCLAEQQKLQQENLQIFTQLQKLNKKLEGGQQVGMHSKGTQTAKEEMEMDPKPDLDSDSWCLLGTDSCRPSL

Assay [4] deals with T3, Membrane-associated tyrosine- and threonine-specific cdc2-inhibitory kinase (Homo sapiens, UniProt Q99640).
T3 sequence (Q99640 whole entry): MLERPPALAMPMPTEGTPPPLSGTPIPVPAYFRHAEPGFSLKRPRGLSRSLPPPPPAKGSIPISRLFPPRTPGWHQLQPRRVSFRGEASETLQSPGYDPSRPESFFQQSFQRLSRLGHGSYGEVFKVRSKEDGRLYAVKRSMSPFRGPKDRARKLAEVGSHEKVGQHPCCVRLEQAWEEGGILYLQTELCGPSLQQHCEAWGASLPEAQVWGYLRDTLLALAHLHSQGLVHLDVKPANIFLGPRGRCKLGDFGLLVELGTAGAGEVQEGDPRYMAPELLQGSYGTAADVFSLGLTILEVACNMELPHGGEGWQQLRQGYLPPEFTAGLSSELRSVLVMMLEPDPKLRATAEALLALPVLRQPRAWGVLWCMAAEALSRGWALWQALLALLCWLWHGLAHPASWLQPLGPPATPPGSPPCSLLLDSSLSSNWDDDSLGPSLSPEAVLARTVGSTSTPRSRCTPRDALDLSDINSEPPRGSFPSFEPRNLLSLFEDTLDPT

In a further assay the target is T4, Pyridoxal kinase (Homo sapiens, UniProt O00764).
T4 sequence (O00764 whole entry): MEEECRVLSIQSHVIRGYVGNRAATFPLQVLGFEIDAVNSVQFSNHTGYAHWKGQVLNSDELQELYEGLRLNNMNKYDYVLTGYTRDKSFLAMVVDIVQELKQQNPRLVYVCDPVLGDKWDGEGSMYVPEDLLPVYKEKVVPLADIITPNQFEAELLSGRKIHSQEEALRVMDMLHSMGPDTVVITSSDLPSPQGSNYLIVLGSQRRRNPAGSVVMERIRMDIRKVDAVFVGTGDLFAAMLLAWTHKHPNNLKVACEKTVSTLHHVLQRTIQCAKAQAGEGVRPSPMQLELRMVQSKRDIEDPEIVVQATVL

Assay [5] addresses TRAF2 and NCK-interacting protein kinase (Homo sapiens, UniProt Q9UKE5).
The target in assay [6] is NADH dehydrogenase [ubiquinone] 1 alpha subcomplex subunit 13 (Homo sapiens, UniProt Q9P0J0).
Further: in the data inactive means no Kd found up to 30 µM.

Sequence of NADH dehydrogenase [ubiquinone] 1 alpha subcomplex subunit 13 (Q9P0J0 whole entry, one chain of several): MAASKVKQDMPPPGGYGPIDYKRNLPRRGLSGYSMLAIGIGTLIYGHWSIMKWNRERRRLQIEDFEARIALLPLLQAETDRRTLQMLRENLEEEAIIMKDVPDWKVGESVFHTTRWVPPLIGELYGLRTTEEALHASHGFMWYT
Sequence of Cyclin-dependent kinase 4 (P11802 whole entry): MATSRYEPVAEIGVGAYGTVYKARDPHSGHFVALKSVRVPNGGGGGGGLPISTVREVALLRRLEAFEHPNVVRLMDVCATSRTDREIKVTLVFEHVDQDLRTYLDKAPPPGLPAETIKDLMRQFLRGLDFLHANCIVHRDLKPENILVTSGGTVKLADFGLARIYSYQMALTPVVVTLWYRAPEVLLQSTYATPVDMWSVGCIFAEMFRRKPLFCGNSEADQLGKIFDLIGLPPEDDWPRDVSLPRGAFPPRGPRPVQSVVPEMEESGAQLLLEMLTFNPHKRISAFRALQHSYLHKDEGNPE
Sequence of TRAF2 and NCK-interacting protein kinase (Q9UKE5 whole entry): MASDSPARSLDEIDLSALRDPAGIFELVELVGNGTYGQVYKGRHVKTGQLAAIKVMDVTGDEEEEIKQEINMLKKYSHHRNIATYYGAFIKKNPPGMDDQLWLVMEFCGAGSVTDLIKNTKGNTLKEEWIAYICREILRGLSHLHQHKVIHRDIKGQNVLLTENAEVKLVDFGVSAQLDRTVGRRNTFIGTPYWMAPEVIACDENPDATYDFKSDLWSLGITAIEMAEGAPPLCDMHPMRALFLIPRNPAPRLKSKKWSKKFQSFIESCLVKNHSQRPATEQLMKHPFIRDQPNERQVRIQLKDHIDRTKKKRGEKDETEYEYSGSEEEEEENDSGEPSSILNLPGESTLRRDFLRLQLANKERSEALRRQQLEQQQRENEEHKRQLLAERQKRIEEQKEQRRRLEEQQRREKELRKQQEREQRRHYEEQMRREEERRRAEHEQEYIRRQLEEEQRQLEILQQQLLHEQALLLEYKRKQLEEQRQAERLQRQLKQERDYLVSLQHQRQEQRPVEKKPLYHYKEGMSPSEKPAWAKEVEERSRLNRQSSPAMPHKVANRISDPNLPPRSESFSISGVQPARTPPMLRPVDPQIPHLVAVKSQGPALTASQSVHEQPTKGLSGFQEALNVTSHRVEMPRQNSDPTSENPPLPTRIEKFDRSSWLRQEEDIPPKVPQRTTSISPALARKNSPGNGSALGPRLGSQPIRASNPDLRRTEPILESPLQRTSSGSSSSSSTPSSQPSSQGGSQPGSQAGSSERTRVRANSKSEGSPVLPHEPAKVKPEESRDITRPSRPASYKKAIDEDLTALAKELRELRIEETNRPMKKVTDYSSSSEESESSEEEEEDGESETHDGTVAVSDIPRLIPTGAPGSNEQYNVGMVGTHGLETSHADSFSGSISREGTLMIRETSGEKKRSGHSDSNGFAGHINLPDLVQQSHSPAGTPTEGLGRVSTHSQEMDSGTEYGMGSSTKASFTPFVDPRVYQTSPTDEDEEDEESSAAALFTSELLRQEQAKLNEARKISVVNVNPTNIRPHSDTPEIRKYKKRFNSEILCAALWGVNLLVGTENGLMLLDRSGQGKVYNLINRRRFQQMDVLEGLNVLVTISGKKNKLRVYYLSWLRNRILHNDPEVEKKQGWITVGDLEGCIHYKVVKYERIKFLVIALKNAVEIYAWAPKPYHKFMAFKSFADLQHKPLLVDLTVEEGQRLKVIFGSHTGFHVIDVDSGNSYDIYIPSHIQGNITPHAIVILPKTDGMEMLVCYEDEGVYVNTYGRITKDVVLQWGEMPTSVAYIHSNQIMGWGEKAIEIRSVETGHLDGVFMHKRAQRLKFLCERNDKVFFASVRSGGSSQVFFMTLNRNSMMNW

Take `C[C@@H](Nc1cc(F)cc(F)c1)c1cc(C(=O)N(C)C)cc2c(=O)cc(N3CCOCC3)oc12` [AZD-8186]: the Kd (in assay [1]; in assay [2]; in assay [3]; in assay [4]; at Pyridoxal kinase; in assay [5]) was > 30 µM (inactive) throughout. Moreover, in assay [6], the Kd was > 30 µM (inactive).
As to `C[C@@H](c1ccc2nccn2c1)n1nnc2ncc(-c3cnn(C)c3)nc21` [SAVOLITINIB], the Kd (in assay [1]; in assay [2]; in assay [3]; in assay [4]; at Pyridoxal kinase; in assay [5]) was > 30 µM (inactive) throughout.
For the compound `Cc1nc(N)sc1-c1ccnc(Nc2ccc(N3CCOCC3)cc2)n1` [CYC-116], the Kd in assay [1] is > 30 µM (inactive); in assay [3], 0.133 µM (active); in assay [4], > 30 µM (inactive); on Pyridoxal kinase it was > 30 µM (inactive); in assay [5], 2.14 µM (active); in assay [6], > 30 µM (inactive).
Turning to `Cc1cc(Nc2cc(N3CCN(C)CC3)nc(/C=C/c3ccccc3)n2)n[nH]1` [ENMD-2076], the Kd (in assay [1]; in assay [2]; in assay [4]; at Pyridoxal kinase; in assay [6]) was > 30 µM (inactive) throughout.
As to `Nc1nc(N)c2nc(-c3cccc(O)c3)c(-c3cccc(O)c3)nc2n1` [TG100-115], the Kd is > 30 µM (inactive) in assay [1], 5.25 µM (active) on Pyridoxal kinase and > 30 µM (inactive) in assay [6].
As for `CN1CCN(c2ccc3nc(-c4c(N)c5c(F)cccc5[nH]c4=O)[nH]c3c2)CC1` [DOVITINIB], the Kd (in assay [1]; at Pyridoxal kinase; in assay [6]) was > 30 µM (inactive) each time.
Regarding `CNS(=O)(=O)Nc1nccc(Cc2c(C)c3ccc(Oc4ncccn4)cc3oc2=O)c1F` [AVUTOMETINIB], the Kd (in assay [1]; in assay [2]; in assay [3]; in assay [4]; at Pyridoxal kinase; in assay [5]) was > 30 µM (inactive) throughout.
Turning to `COc1cc2nccc(Oc3ccc(NC(=O)Nc4cc(C)on4)c(Cl)c3)c2cc1OC` [TIVOZANIB], the Kd (in assay [1]; in assay [2]; in assay [3]; in assay [4]; at Pyridoxal kinase; in assay [6]) was > 30 µM (inactive) each time.
For the compound `CCc1cnn2c(NCc3ccc[n+]([O-])c3)cc(N3CCCC[C@H]3CCO)nc12` [DINACICLIB], the Kd (in assay [1]; in assay [3]; in assay [4]; at Pyridoxal kinase; in assay [5]; in assay [6]) was > 30 µM (inactive) throughout.
On to `Cc1cc([C@@H](C)Nc2ccccc2C(=O)O)c2nc(N3CCOCC3)cc(=O)n2c1` [AZD-6482], for which the Kd (in assay [1]; in assay [3]; in assay [4]; on Pyridoxal kinase; in assay [5]; in assay [6]) was > 30 µM (inactive) throughout.
For `CNC(=O)c1ccc(-c2cnc3ncc(Cc4ccc5ncccc5c4)n3n2)cc1F` [CAPMATINIB], the Kd (in assay [1]; in assay [2]; in assay [3]; in assay [4]; at Pyridoxal kinase; in assay [5]) was > 30 µM (inactive) each time.
In the case of `CCn1c(-c2nonc2N)nc2c(C#CC(C)(C)O)ncc(OC[C@H]3CCCNC3)c21` [GSK-690693], the Kd (in assay [1]; on Pyridoxal kinase; in assay [6]) was > 30 µM (inactive) throughout.
With `Cc1cn(-c2cc(NC(=O)c3ccc(C)c(Nc4nccc(-c5cccnc5)n4)c3)cc(C(F)(F)F)c2)cn1` [NILOTINIB], the Kd (in assay [1]; at Pyridoxal kinase; in assay [6]) was > 30 µM (inactive) each time.
As to `Cc1c(F)cc(C(=O)NC2CC2)cc1-c1ccc(C(=O)NCC(C)(C)C)cn1` [LOSMAPIMOD], the Kd (in assay [1]; in assay [2]; in assay [3]; in assay [4]; on Pyridoxal kinase; in assay [6]) was > 30 µM (inactive) each time.
Consider `C=CC(=O)N1CCC(Oc2cc3c(Nc4ccc(Cl)c(Cl)c4F)ncnc3cc2OC)CC1` [POZIOTINIB], for which the Kd (in assay [1]; in assay [2]; in assay [3]; in assay [4]; on Pyridoxal kinase; in assay [5]) was > 30 µM (inactive) in each case.
Regarding `CN(C)C(=O)c1cc2cnc(Nc3ccc(N4CCNCC4)cn3)nc2n1C1CCCC1` [RIBOCICLIB], the Kd (in assay [1]; in assay [3]; in assay [4]; on Pyridoxal kinase; in assay [5]; in assay [6]) was > 30 µM (inactive) throughout.
